Test results taken from patent US20030162759A1, “Aldosterone blocker therapy to prevent or treat inflammation-related disorders” (priority 2000, published 2003).
“And” between values parts separate entries of the source, which are not always exact repeats. Identical values can stand only once.

Key:
Format in all cases: in vivo, rat
hydroxyproline = experiment: Assay C: myocardial hydroxyproline assay; details: for Hydroxyproline: individual rats; for Hydroxyproline, Mean: group mean
Description: The procedure of Assay B was expanded upon in a further study. […] Myocardial tissue from animals in each treatment group was examined after 7, 14, or 30 days of treatment. […] Lesions were preceded by the expression and progressive upregulation of proinflammatory molecules. […] Prior to surgery the animals were individually weighed and placed in one of the following groups: […] Potassium chloride supplementation was added to the saline solution in order to prevent the potential hypokalemia associated with aldosterone excess. […] Louis, Mo.) was inserted subcutaneously at the nape of the neck. Aldosterone was administered at a dose of […]. […] Animals were sacrificed from each group (n=8-13) after 7, 14, or 30 days of treatment. Following exsanguination, hearts and kidneys were isolated, removed, rinsed in cold phosphate-buffered saline, and blotted dry. […] Myocardial hydroxyproline concentration was measured by a colorimetric assay that quantifies the reaction between oxidized hydroxyproline, and p-dimethylaminobenzaldehyde as described previously (4). […] Dried tissues and a positive collagen control (Bovine Collagen Type I, Sigma, St. […] T. Baker, Phillipsburg, N.J.) for 5 min at 25° C. […] Samples were incubated at 60° C. for 30 min, cooled to room temperature, and absorbance was monitored at 558 nm. Hydroxyproline content was quantitated from a freshly prepared standard curve of trans-4-hydroxy-L-proline (Sigma, St. Louis, Mo.). All samples and standards were performed in duplicate.

[1] = tested on: angiotensin II infused rats; experiment: Assay A angiotensin II infusion model: systolic blood pressure by tail-cuff; details: Wistar rats, 1% NaCl, angiotensin II 25 ng/min sc; eplerenone 100 mpk; 4 weeks
Description: Assay A: In Vivo Angiotensin II Infusion Model
Male Wistar rats (n—50, 10/group; BW=200 g)
2. Angiotensin 11 (25 ng/min, sc via aizet minipump)
SBP measured by tail-cuff every week

interstitial collagen = experiment: Assay C: interstitial collagen volume fraction (Picrosirius Red image analysis); details: for Interstitial Collagen Volume Fraction: Table 9.14, 7-day protocol; for Collagen Volume Fraction (%), Mean: group mean; for ICVF (interstitial collagen volume fraction): eplerenone 100 mg/kg/day
Description: The procedure of Assay B was expanded upon in a further study. […] Myocardial tissue from animals in each treatment group was examined after 7, 14, or 30 days of treatment. […] Lesions were preceded by the expression and progressive upregulation of proinflammatory molecules. […] Prior to surgery the animals were individually weighed and placed in one of the following groups: […] Potassium chloride supplementation was added to the saline solution in order to prevent the potential hypokalemia associated with aldosterone excess. […] Louis, Mo.) was inserted subcutaneously at the nape of the neck. Aldosterone was administered at a dose of […]. […] Animals were sacrificed from each group (n=8-13) after 7, 14, or 30 days of treatment. The equatorial regions of the heart were routinely processed into paraffin with an automated tissue processor (Hypercenter XP, Shandon/Lipshaw Inc., Pittsburgh, Pa.) and embedded into fresh paraffin apical side down (Shandon Embedding Center, Shandon/Lipshaw Inc.). […] Ten m sections were stained with the collagen specific stain, Picrosirius Red F3BA (Saturated Picric Acid (Sigma Chemical, St. […] Waterbury, Conn.) (6). Mounted tissues were hydrated with water. […] Slides were coverslipped with #1 cover glass using Permount Histological Mounting Media (Fisher Scientific). Two slides mounted with 5 m sections were cut for each animal. One slide was processed for H&E staining and one for Periodic Acid Schiff (PAS) staining. The H&E and PAS were used for pathological scoring of the hearts. Picrosirius Red F3BA stained slides were used to quantify interstitial collagen with a Videometric 150 Image Analysis System (Oncor Inc., Gaitherburg, Md.). […] Garden City, N.Y.) attached to a Nikon Optiphot microscope (Nikon Inc.). A Toshiba 3 CCD Color Video Camera (Model#[…] Corp. Japan) relayed the images in RGB format from the microscope to a 386 computer with a […] video board. The […] video board/[…] software application (Oncor Inc.) converted RGB images to HIS (Hue, Intensity, Saturation) format for display and analysis on a Sony Trinitron Color Video Monitor (Model#PVM-1342Q, Sony Corp, Tokyo, Japan) at a magnification of 305×. […] The […] application then measured only pixels which fell into thresholding limits. The system was calibrated with a micrometer scale (EM Sciences, FT. Washington, Pa. 19034), which allowed data to be expressed in mm^2 or m^2.

SMILES | Hydroxyproline (hydroxyproline; Table 9.14, 7-day protocol, myocardial, listed as Aldosterone + salt) [µg/mg] | Hydroxyproline (hydroxyproline; 14 days of treatment, eplerenone 100 mg/kg/day, listed as Aldosterone + salt) | Hydroxyproline (hydroxyproline; 30 days of treatment, eplerenone 100 mg/kg/day, listed as Aldosterone + salt) [µg/mg] | Systolic Blood Pressure [1] | Interstitial Collagen Volume Fraction (interstitial collagen; group Mean) [%] | Interstitial Collagen Volume Fraction (interstitial collagen; individual rats, listed as Aldosterone + salt) | Collagen Volume Fraction (%), Mean (interstitial collagen; 14 days of treatment) [%] | Collagen Volume Fraction (%), Mean (interstitial collagen; 30 days of treatment) [%] | ICVF (interstitial collagen volume fraction) (interstitial collagen; mean ± SEM after 7 days of treatment) [%] | ICVF (interstitial collagen volume fraction) (interstitial collagen; mean ± SEM after 14 days of treatment) [%] | ICVF (interstitial collagen volume fraction) (interstitial collagen; mean ± SEM after 30 days of treatment) [%] | Hydroxyproline, Mean (hydroxyproline; 14 days of treatment) [µg/mg] | Hydroxyproline, Mean (hydroxyproline; 30 days of treatment) [µg/mg] | Hydroxyproline (hydroxyproline; 14 days of treatment, eplerenone 100 mg/kg/day, listed as Eplerenone + aldosterone + salt) [µg/mg] | Hydroxyproline (hydroxyproline; 30 days of treatment, eplerenone 100 mg/kg/day, listed as Eplerenone + aldosterone + salt) [µg/mg]
C[C@]12CCC(=O)C=C1CC[C@@H]1[C@@H]2[C@@H](O)C[C@]2(C=O)[C@@H](C(=O)CO)CC[C@@H]12 [aldosterone] | 2.10 | 2.60 µg/mg and 3.00 µg/mg | 4.00 | increased blood pressure | 5.6 | 3.2% and 6.5% (2×) and 6.1% and 6.9% and 4.4% and 3.1% | 5.1 | 7.9 | 5.6 ± 0.6 | 5.1 ± 0.5 | 7.9 ± 1.0 |  |  |  | 
COC(=O)[C@@H]1CC2=CC(=O)CC[C@]2(C)[C@@]23O[C@@H]2C[C@@]2(C)[C@@H](CC[C@@]24CCC(=O)O4)[C@H]13 [eplerenone, Pregn-4-ene-7,21-dicarboxylic acid, 9,11-epoxy-17-hydroxy-3-oxo-, γ-lactone, methyl ester, (7α, 11α, 17β) -] |  |  |  | Neither eplerenone nor adrenalectomy reduced blood pressure |  |  | 4.5 | 6.2 |  |  |  | 4.46 | 4.10 | 6.80 | 6.40
